Results published in US20170002011A1, “BENZENE SULFONAMIDES AS CCR9 INHIBITORS” (NORGINE B.V., priority 2013, published 2017).

Columns and labels:
CCR9 [1] = target: T1, CCR9 (Homo sapiens, UniProt P51686); assay: FLIPR calcium flux assay using MOLT4 cells (TECK stimulation); assay type: cell-based; set-up: endogenous in cells; host or cells: MOLT4 (human T-cell line); conditions: MOLT4 cells (a human T-cell line); Ki determined from IC50 of TECK-induced intracellular calcium increase
T1 sequence (P51686 1-369): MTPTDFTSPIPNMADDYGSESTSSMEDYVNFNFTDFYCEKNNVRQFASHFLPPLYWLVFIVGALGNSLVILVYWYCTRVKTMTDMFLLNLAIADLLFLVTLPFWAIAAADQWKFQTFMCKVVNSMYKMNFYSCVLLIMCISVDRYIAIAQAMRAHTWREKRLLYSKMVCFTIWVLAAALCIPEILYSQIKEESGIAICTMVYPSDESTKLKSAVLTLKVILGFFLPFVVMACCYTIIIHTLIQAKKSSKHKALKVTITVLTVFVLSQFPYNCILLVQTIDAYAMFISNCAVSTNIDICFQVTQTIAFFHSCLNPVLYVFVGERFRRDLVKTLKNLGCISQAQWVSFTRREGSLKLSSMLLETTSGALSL
Method: Biological Activity: FLIPR Assay Using MOLT4 Cells
A calcium flux assay was used to determine the ability of the compounds to interfere with the binding between CCR9 and its chemokine ligand (TECK) in MOLT4 cells (a human T-cell line). MOLT4 cells were seeded (100,000 cells/well) in coming cell culture plates (Cat #3603) in assay buffer (lx HBSS, 20 mM HEPES) containing 2.5 mM Probenecid. The plate was centrifuged at 1200 rpm for 3 minutes and incubated at 37° C./5% CO2 for 2 hours. A 0.3× Fluo-4 NW calcium dye was prepared in assay buffer containing 5 mM Probenecid and stored in the dark. Each well was loaded with 25 μL of 0.3× Fluo-4 NW calcium dye and incubated at 37 C/5% CO2 for 60 minutes and then at room temperature for 30 minutes. A half-log serially diluted concentration response curve was prepared at a 4× concentration for each (10 μM-0.1 nM final assay concentration) and 25 μL of the compound then transferred to the cells (100 μL final volume) for 60 minutes prior to stimulation (30 minutes at 37° C./5% CO2 and 30 minutes at room temperature). TECK was diluted to 5× its EC50 in assay buffer (containing 0.1% [w/v] bovine serum albumin [BSA]) and 25 μL dispensed through the FLIPR instrument to stimulate the cells (125 μL final volume). The increased in intracellular calcium levels was measured with the FLIPR instrument. The potency of the compound as CCR9 antagonist was calculated as an IC50 using GraphPad Prism software (variable slope four parameter). The Ki of the compound was determined from the IC50 values using the following equation.
(§1) Ki calculation: IC50/1+(Agonist (TECK) conc. used in assay/EC50 of agonist (TECK) generated on day of experiment)

CCR9 [2] = target: T1, CCR9; assay: FLIPR calcium flux assay using hCCR9 over expressed cells (TECK stimulation); assay type: cell-based; set-up: expressed in transfected cells; host or cells: Chem-1 cells overexpressing hCCR9; conditions: Chem1-hCCR9 overexpressing cells; Ki determined from IC50 of TECK-induced intracellular calcium increase
Method: Biological Activity: FLIPR Assay Using hCCR9 Over Expressed Cells
A calcium flux assay was used to determine the ability of the compounds to interfere with the binding between CCR9 and its chemokine ligand (TECK) in Cheml-hCCR9 overexpressing cells. hCCR9 overexpressing cells were seeded (25,000 cells/well) into black Poly-D-Lysine coated clear bottom 96-well plates (BD Biosciences, Cat #356640) and incubated overnight at 37° C./5% CO2 in a humidified incubator. Media was aspirated and cells washed twice with 100 μL assay buffer (1×HBSS, 20 mM HEPES) containing 2.5 mM Probenecid. A 0.3× Fluo-4 NW calcium dye was prepared in assay buffer containing 5 mM Probenecid and stored in the dark. Each well was loaded with 100 μL of 0.3× Fluo-4 NW calcium dye and incubated at 37° C./5% CO2 for 60 minutes and then at room temperature for 30 minutes. A half-log serially diluted concentration response curve was prepared at a 3× final assay concentration for each compound (10 μM−0.1 nM final assay concentration) and 50 μL of the compound then transferred to the cells (150 μL final volume) for 60 minutes prior to stimulation (30 minutes at 37° C./5% CO2 and 30 minutes at room temperature). TECK was diluted to 4× its ECso in assay buffer (containing 0.1% [w/v] bovine serum albumin[BSA]) and 50 μL dispensed through the fluorometric imaging plate reader (FLIPR) instrument to stimulate the cells (200 μL final volume). The increase in intracellular calcium levels was measured with the FLIPR instrument. The potency of the compound as a CCR9 antagonist was calculated as an IC50 using GraphPad Prism software (variable slope four parameter). The Ki of the compound was determined from the IC50 values using the following equation.
as §1

SMILES | Ki (CCR9 [1]) [nM] | Ki (CCR9 [2]) [nM]
CC(C)(C)c1ccc(S(=O)(=O)Nc2ccnc3cc(C4CC4)nn23)cc1 [Compound 37, 4-(tert-butyl)-N-(2-cyclopropylpyrazolo[1,5-a]pyrimidin-7-yl)benzenesulfonamide] | 703 | 1950
CC(C)c1cc2nccc(NS(=O)(=O)c3ccc(C(C)(C)C)cc3)n2n1 [Compound 79, 4-(tert-butyl)-N-(2-isopropylpyrazolo[1,5-a]pyrimidin-7-yl)benzenesulfonamide] | 295 | 1520
CCc1cc2nccc(NS(=O)(=O)c3ccc(C(C)(C)C)cc3)n2n1 [Compound 85, 4-(tert-butyl)-N-(2-ethylpyrazolo[1,5-a]pyrimidin-7-yl)benzenesulfonamide] | 111 | 1800
Cc1cc2c(Cl)ccc(NS(=O)(=O)c3ccc(C(C)(C)C)cc3)n2n1 [Compound 94, 4-(tert-butyl)-N-(4-chloro-2-methylpyrazolo[1,5-a]pyridin-7-yl)benzenesulfonamide] | 162 | 181
Cc1cc2c(C#N)ccc(NS(=O)(=O)c3ccc(C(C)(C)C)cc3)n2n1 [Compound 95, 4-(tert-butyl)-N-(4-cyano-2-methylpyrazolo[1,5-a]pyridin-7-yl)benzene sulfonamide] | 2 | 110
Cc1cc2c(Cl)ccc(NS(=O)(=O)c3ccc(C(C)(C)C#N)cc3)n2n1 [Compound 98] | 109 | 512
CC(C)(C)c1ccc(S(=O)(=O)Nc2ccc(Cl)c3cc(C4CC4)nn23)cc1 [Compound 105] | 285 | 56
CC(C)(C)c1ccc(S(=O)(=O)Nc2ccc(Cl)c3cc(-c4cccnc4)nn23)cc1 [Compound 110, 4-(tert-butyl)-N-(4-chloro-2-(pyridin-3-yl)pyrazolo[1,5-a]pyridin-7-yl)benzenesulfonamide] | 115 | 394
CC(C)(C)c1ccc(S(=O)(=O)Nc2ccc(Cl)c3cc(-c4ccc[n+]([O-])c4)nn23)cc1 [Compound 111, 3-(7-((4-(tert-butyl)phenyl)sulfonamido)-4-chloropyrazolo[1,5-a]pyridin-2-yl)pyridine 1-oxide] | 56 | 190
O=S(=O)(Nc1ccc(Cl)c2cc(-c3cccnc3)nn12)c1ccc(C(F)(F)F)cc1 [Compound 113] | 187 | 756
CC(C)(C)c1ccc(S(=O)(=O)Nc2ccc(C#N)c3cc(-c4cccnc4)nn23)cc1 [Compound 149, 4-(tert-butyl)-N-(4-cyano-2-(pyridin-3-yl)pyrazolo[1,5-a]pyridin-7-yl)benzenesulfonamide] | 87 | 159
Cn1nccc1-c1cc2c(C#N)ccc(NS(=O)(=O)c3ccc(C(C)(C)C)cc3)n2n1 [Compound 152] | 41 | 125
CC(C)(C)c1ccc(S(=O)(=O)Nc2ccc(C#N)c3cc(-c4cncc(F)c4)nn23)cc1 [Compound 156, 4-(tert-butyl)-N-(4-cyano-2-(5-fluoropyridin-3-yl)pyrazolo[1,5-a]pyridin-7-yl)benzenesulfonamide] | 51 | 107
Cc1cc(-c2cc3c(C#N)ccc(NS(=O)(=O)c4ccc(C(C)(C)C)cc4)n3n2)n(C)n1 [Compound 158] | 48 | 186
Cn1ccc(-c2cc3c(C#N)ccc(NS(=O)(=O)c4ccc(C(C)(C)C)cc4)n3n2)c1 [Compound 159] | 96 | 136
COc1cncc(-c2cc3c(C#N)ccc(NS(=O)(=O)c4ccc(C(C)(C)C)cc4)n3n2)c1 [Compound 161] | 62 | 127
CC(C)(C)c1ccc(S(=O)(=O)Nc2ccc(C#N)c3cc(-c4cn[nH]c4)nn23)cc1 [Compound 164, 4-(tert-butyl)-N-(4-cyano-2-(1H-pyrazol-4-yl)pyrazolo[1,5-a]pyridin-7-yl)benzenesulfonamide] | 34 | 112

SMILES | Ki (CCR9 [1]) [nM] | Ki (CCR9 [2]) [nM]
CC(C)(C)c1ccc(S(=O)(=O)Nc2ccc(Cl)c3cc(-c4cnco4)nn23)cc1 [Compound 169, 4-(tert-butyl)-N-(4-chloro-2-(oxazol-5-yl)pyrazolo[1,5-a]pyridin-7-yl)benzenesulfonamide] | 164 | 343
CC(C)(C)c1ccc(S(=O)(=O)Nc2ccc(Cl)c3cc(-c4ccsc4C(=O)O)nn23)cc1 [Compound 172, 3-(7-((4-(tert-butyl)phenyl)sulfonamido)-4-chloropyrazolo[1,5-a]pyridin-2-yl)thiophene-2-carboxylic acid] | 79 | 129
CC(C)(C)c1ccc(S(=O)(=O)Nc2c(C#N)ccc3cc(-c4cccnc4)nn23)cc1 [Compound 180, 4-(tert-butyl)-N-(6-cyano-2-(pyridin-3-yl)pyrazolo[1,5-a]pyridin-7-yl)benzenesulfonamide] | 30 | 133
Cn1cnc(-c2cc3c(Cl)ccc(NS(=O)(=O)c4ccc(C(C)(C)C)cc4)n3n2)c1 [Compound 182] | 80 | 168
Cn1ccc(-c2cc3c(Cl)ccc(NS(=O)(=O)c4ccc(C(C)(C)C)cc4)n3n2)n1 [Compound 183] | 95 | 94
Cn1ccc(-c2cc3c(C#N)ccc(NS(=O)(=O)c4ccc(C(C)(C)C)cc4)n3n2)n1 [Compound 184] | 22 | 17
CC(C)n1cc(-c2cc3c(Cl)ccc(NS(=O)(=O)c4ccc(C(C)(C)C)cc4)n3n2)cn1 [Compound 186] | 31 | 67
CCn1cc(-c2cc3c(C#N)ccc(NS(=O)(=O)c4ccc(C(C)(C)C)cc4)n3n2)cn1 [Compound 189] | 10 | 22
Cc1c(-c2cc3c(C#N)ccc(NS(=O)(=O)c4ccc(C(C)(C)C)cc4)n3n2)cnn1C [Compound 190] | 54 | 114
CC(C)n1cc(-c2cc3c(C#N)ccc(NS(=O)(=O)c4ccc(C(C)(C)C)cc4)n3n2)cn1 [Compound 191] | 19 | 9
Cn1nnc(-c2cc3c(Cl)ccc(NS(=O)(=O)c4ccc(C(C)(C)C)cc4)n3n2)n1 [Compound 192] | 161 | 183
COc1ccc(-c2cc3c(C#N)ccc(NS(=O)(=O)c4ccc(C(C)(C)C)cc4)n3n2)cn1 [Compound 198] | 26 | 54
Cc1cncc(-c2cc3c(Cl)ccc(NS(=O)(=O)c4ccc(C(C)(C)C)cc4)n3n2)c1 [Compound 199] | 105 | 63
Cc1cncc(-c2cc3c(C#N)ccc(NS(=O)(=O)c4ccc(C(C)(C)C)cc4)n3n2)c1 [Compound 200] | 20 | 12
COc1ncccc1-c1cc2c(C#N)ccc(NS(=O)(=O)c3ccc(C(C)(C)C)cc3)n2n1 [Compound 202] | 107 | 127
Cc1ncccc1-c1cc2c(Cl)ccc(NS(=O)(=O)c3ccc(C(C)(C)C)cc3)n2n1 [Compound 203] | 85 | 149
